Values joined by “and” are separate entries in the source; they are usually repeats but may differ in a detail not shown here. Identical values can stand only once.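 Assay format: 96-well plates, 48-hour exposure. Abbreviation: GI50, concentration required for 50% inhibition of growth. TGI: total growth inhibition.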
How the values were obtained:
Experiment in all cases: NCI tumour cell line growth inhibition, 48 h
MCF7 breast = system: MCF7 breast
MDA-N = system: MDA-N
MDA-MB-435 = system: MDA-MB-435
HS 578T breast = system: HS 578T breast
BT-549 breast = system: BT-549 breast
MDA-MB-231 breast = system: MDA-MB-231 breast

Row | SMILES | TGI (MCF7 breast) | TGI (MDA-N) | TGI (MDA-MB-435) | TGI (HS 578T breast) | TGI (BT-549 breast) | TGI (MDA-MB-231 breast) | GI50 (MCF7 breast) | GI50 (MDA-MB-435) | GI50 (HS 578T breast) | GI50 (BT-549 breast) | GI50 (MDA-MB-231 breast) | GI50 (MDA-N)
1 | Cc1cccc(Cl)c1NC(=O)/C=C/c1ccccc1 | > 100 µM | > 100 µM | > 100 µM | > 100 µM | > 100 µM | > 100 µM |  |  |  |  |  | 
2 | CCN=c1cc2sc3cc(NCC)c(C)cc3nc-2cc1C | 0.937 µM |  | 4.33 µM | 15.2 µM | 19.9 µM | 11.1 µM | 0.242 µM | 1.55 µM | 2.14 µM | 2.87 µM | 0.334 µM | 
3 | O=C(Nc1cc[c]([Sb](=[O])([OH])[OH])cc1)c1ccccc1 |  |  | > 100 µM | > 100 µM | > 100 µM | > 100 µM |  | > 100 µM | > 100 µM | > 100 µM | > 100 µM | 
4 | O=C(N/N=C/c1ccccc1Cl)c1ccccc1Nc1ccnc(C(F)(F)F)c1 | 4.52 µM |  | 6.81 µM | 7.23 µM | 7.13 µM | 6.94 µM | 0.706 µM | 1.71 µM | 1.82 µM | 1.77 µM | 1.93 µM | 
5 | CC[Si](CC)(CC)OC[C@]1([C@@H]2COC(C)(C)O2)CC=CC(=O)O1 | > 100 µM |  | > 100 µM | > 100 µM | 71.2 µM | > 100 µM | 43.6 µM | 36.4 µM | 34.6 µM | 20.2 µM | 51.1 µM | 
6 | COc1c(Cl)c2c(c(OC)c1OC)-c1ccc(SC)c(=O)cc1[C@@H](NC(=O)OCC(F)(F)F)CC2 | > 100 µM |  | < 0.01 µM | > 100 µM | 0.956 µM | 3.24 µM | < 0.01 µM | < 0.01 µM | < 0.01 µM | < 0.01 µM | < 0.01 µM | 
7 | O=c1[nH]ccc2nc(N3CCC(O)CC3)nc(Nc3cccc(C(F)(F)F)c3)c12 | 12.7 µM |  | 3.55 µM | 14.1 µM | 4.34 µM | > 100 µM | 2.84 µM | 1.29 µM | 1.93 µM | 1.6 µM | 12.2 µM | 
8 | Cc1cc(N2CCN(c3ccnc4cc(Cl)ccc34)CC2)nc(NC2CCCCC2)n1 | 3.47 µM |  | 2.96 µM | 6.62 µM | 3.28 µM | 4.09 µM | 1.57 µM | 1.49 µM | 2.1 µM | 1.66 µM | 2 µM | 
9 | NC(=O)c1ccc2c(-c3ccnc(NCCCO)n3)c(-c3ccc(F)cc3)nn2c1 | > 25 µM |  | > 25 µM | > 25 µM | > 25 µM | > 25 µM | > 16.9 µM | > 18.3 µM | > 25 µM | > 25 µM | > 25 µM | 
10 | CCOc1ccc(Nc2nc(-c3ccc4c(c3)NC(=O)CO4)cs2)cc1 | 23.3 µM |  | 11.3 µM | > 100 µM | 20.7 µM | > 100 µM | 3.18 µM | 2.95 µM | 22.5 µM | 2.56 µM | 21.1 µM | 
11 | Cc1cc(I)cc(CN(C)CCN2CCCC2)c1O | 53.7 µM |  | 42.4 µM | 67.1 µM | 48.8 µM | 67.3 µM | 24.3 µM | 18.3 µM | 31.6 µM | 18.7 µM | 22 µM | 
12 | COc1ccc(-c2ccc(/C=N/n3c(COc4ccc(Cl)cc4Cl)nn(CN4CCN(C)CC4)c3=S)o2)c([N+](=O)[O-])c1 | 29.8 µM |  | 37.5 µM | > 100 µM |  | > 100 µM | 10 µM | 15.9 µM | 37.8 µM |  | 28.9 µM | 
13 | COc1ccc(-c2nc3ncccn3c2/C=C/C(=O)c2cc(OC)c(OC)c(OC)c2)cc1 | 3.32 µM |  | 10.6 µM | 14.7 µM | 5.92 µM | 17.2 µM | 1.14 µM | 2.28 µM | 1.91 µM | 1.45 µM | 2.73 µM | 
14 | CC1(C)CC(n2cnc(-c3ccc(F)cc3)c2-c2ccnc(N)n2)CC(C)(C)N1 | > 19.6 µM |  | > 25 µM | > 25 µM | > 25 µM | > 25 µM | 6.01 µM | > 25 µM | > 25 µM | > 25 µM | > 22.7 µM | 
15 | CC1=C2C[C@H]3[C@@H](CC=C4C[C@@H](O)CC[C@@]43C)[C@@H]2CC[C@]12O[C@@H]1C[C@H](C)CN[C@H]1[C@H]2C | 50 µM and 55.9 µM |  | > 50 µM and 42.1 µM | > 100 µM | 50 µM and > 100 µM | 42.6 µM and 49.7 µM | 29 µM and 23.7 µM | > 50 µM and 17.2 µM | > 50 µM and 35 µM | 31 µM and 52.1 µM | 17.8 µM and 23.7 µM | 
16 | NC(=N\N=C/c1cccc([N+](=O)[O-])c1)/C(N)=N\N=C/c1cccc([N+](=O)[O-])c1 | > 100 µM |  | > 100 µM | > 100 µM |  | > 100 µM | > 100 µM | > 100 µM | > 100 µM |  | > 100 µM | 

Row | SMILES | TGI (MCF7 breast) | TGI (MDA-N) | TGI (MDA-MB-435) | TGI (HS 578T breast) | TGI (BT-549 breast) | TGI (MDA-MB-231 breast) | GI50 (MCF7 breast) | GI50 (MDA-MB-435) | GI50 (HS 578T breast) | GI50 (BT-549 breast) | GI50 (MDA-MB-231 breast) | GI50 (MDA-N)
17 | O=C(CC12CC3CC(CC(C3)C1)C2)NCCOCCOCCOCCNC(=O)c1cc2c(o1)C(=O)c1ccccc1C2=O | 2.73 µM |  | 0.392 µM | 6.59 µM | 2.68 µM | 9.81 µM | 0.808 µM | 0.2 µM | 1.99 µM | 1.33 µM | 2.43 µM | 
18 | O=C1NC(=S)NC(=O)C1=Cc1cccc2cc3ccccc3cc12 |  | 4.69 µM | 4.65 µM | > 25.6 µM | 3.33 µM | 3.69 µM |  |  |  |  |  | 
19 | C=CCN(CC=C)C(=O)c1cc(C)nc2c1c(=O)n(-c1ccccc1)c(=O)n2CC(O)CN1CCN(c2ncccn2)CC1 (stereo not drawn) | > 100 µM |  | > 100 µM | > 100 µM |  | > 100 µM | 33.3 µM | > 100 µM | > 100 µM |  | > 100 µM | 
20 | COC(=O)C(=O)C(C(=O)C(=O)Nc1ccccc1C(C)=O)c1nc2ccc(C(=O)c3ccccc3)cc2[nH]c1=O (stereo not drawn) | > 100 µM | > 100 µM |  | > 100 µM | > 100 µM | > 100 µM |  |  |  |  |  | 
21 | CCCN1CCN(c2ccc3nc(-c4ccc5nc(-c6cc(OC)ccc6OC)[nH]c5c4)[nH]c3c2)CC1 | 3.82 µM |  | 3.24 µM | 55.6 µM | 36.1 µM | 3.27 µM | 1.8 µM | 1.79 µM | 20.1 µM | 15.7 µM | 1.74 µM | 
22 | O=P([O-])(O)OP(=O)([O-])O.[NH-][C@@H]1CCCC[C@H]1[NH-].[Pt+4] | > 100 µM |  | > 100 µM and 27.4 µM | > 100 µM | > 100 µM | > 100 µM | 7.78 µM and 2.93 µM | 11.8 µM and 4.04 µM | > 100 µM and 56.5 µM | > 100 µM and 30.5 µM | > 100 µM | 
23 | COc1ccc(C2=C(c3ccc(OC)c(OC)c3)C(=O)OC2)cc1 | > 48.8 µM |  |  | 0.792 µM | > 100 µM |  |  | < 0.0463 µM | 0.255 µM | 3.55 µM | 0.682 µM | 
24 | Cc1ccc(-c2nc(N)nc3c2nnn3Cc2cccc(CO[C@H]3CCOC3)n2)o1 | > 100 µM |  | > 100 µM | > 100 µM | > 100 µM | > 100 µM | > 100 µM | > 100 µM | > 100 µM | 82 µM | > 100 µM | 
25 | C=CCN1C=CC(=O)[C@H](O[Si](C)(C)C(C)(C)C)[C@@H]1/C=C/c1ccccc1 | 21.9 µM |  | 30.6 µM | 34.3 µM | 35 µM | 29.8 µM | 8.77 µM | 12.3 µM | 14.1 µM | 16 µM | 14.6 µM | 
26 | COC(=O)c1c2c(c(C)[n+]([O-])c1C)C(=O)C=C(NCc1ccc(OC)cc1)C2=O | 2.14 µM |  | 1.15 µM | 21.6 µM | 15.8 µM | 5.41 µM | 0.72 µM | 0.598 µM | 5.32 µM | 4.29 µM | 0.959 µM | 
27 | Nc1cc(-c2cccc(OC(F)(F)F)c2)nc2ccc(N3CCCC3)cc12 | 17.2 µM and > 100 µM |  | 0.0455 µM and 0.0346 µM and 0.034 µM | 13.2 µM and > 100 µM | > 100 µM | 7.26 µM and > 38.6 µM and 56.9 µM | 0.037 µM and 0.036 µM and 0.0354 µM | < 0.0105 µM | 0.051 µM and 0.0484 µM and 0.0347 µM | 0.208 µM and 0.182 µM and 0.1 µM | 0.0385 µM and 0.0353 µM and 0.0356 µM | 
28 | O=S(=O)(c1ccc(N=C2NN=C(c3c[nH]c4ccccc34)CS2)cc1)N1CCOCC1 | > 100 µM |  | > 100 µM | > 100 µM | 11.3 µM | > 100 µM | 4.31 µM | 8.85 µM | 31.4 µM | 2.86 µM | 45.3 µM | 
29 | c1cc(OCCN2CCCCC2)ccc1CNc1ccc2nc(CCC3CCCCC3)[nH]c2c1 | 4.26 µM |  | 3.09 µM | 4.64 µM | 3.87 µM | 3.02 µM | 1.7 µM | 1.63 µM | 1.64 µM | 1.71 µM | 1.58 µM | 
30 | O=CN1N=C(c2ccc(Cl)cc2)CC1c1cccc(Nc2ccnc3cc(Cl)ccc23)c1 (stereo not drawn) | 16 µM |  | 17.2 µM | > 100 µM | 15.4 µM | 39.2 µM | 0.866 µM | 0.377 µM | 3.23 µM | 1.78 µM | 2.74 µM | 
31 | COc1cc2cc(C(=O)Nc3cc(N)c4ccccc4c3CCCl)[nH]c2c(OC)c1OC | 0.374 µM | 0.219 µM | 0.159 µM | > 50 µM | 0.804 µM |  | 0.00869 µM | 0.0483 µM | 0.0899 µM | 0.121 µM |  | 0.0568 µM
32 | O=C(C[n+]1ccccc1)N=N/C(C(=O)Nc1c(Cl)c(O)c2ccccc2c1O)=C1/C(=O)Oc2cc(O)ccc2C1=O | 15.5 µM |  |  |  | 18.3 µM | 61.4 µM |  |  |  |  |  | 

— PubChem BioAssay (NCI)
